Entries after “also recorded” stand apart in the source; their conditions may differ.
How the values were obtained:
GABAB receptor = target: T1, GABAB receptor (Rattus norvegicus, UniProt Q9Z0U4); assay: Radiolabeled ligand binding assay, [3H]CGP 54626A; settings: 10 μM, Rat cortex
T1 construct: Novascreen Biosciences (contract assay)
Description: (§1) The representative Stemona alkaloid, compound A, was subjected to the following primary receptor binding assays. The standard radiolabeled ligand binding experiments were performed at the concentration of 10 μM in duplicate by Novascreen Biosciences Crop. (7170 Standard Drive, Hanover, Md. 21076, USA). The tested receptors included all currently well-known receptors involved in producing the antitussive activity, for example, [^3H]Deltorphin (δ1-opioid receptor), [^3H]Naltrindole (δ2-opioid receptor), [^3H]DAMGO (μ-opioid receptor), [^3H]U69593 (κ1-opioid receptor), […] (GABAB receptor), [^3H]8-OH-DPAT (5HT1A receptor), and […] (Dopamine D2-receptor). […] Therefore, the results obtained from both in vivo and in vitro studies confirmed that the antitussive activity of all five effective novel Stemona alkaloids and neotuberostemonine are not involved in opiate receptor pathways.

[1] = test system: all receptors examined (opioid δ1, δ2, κ, μ, GABAB, 5-HT1A, Dopamine D2); assay: In vitro receptor binding assays, summary over all receptors examined; settings: 10 μM, radiolabeled ligand binding
Description: as §1

5HT1A receptor = assay: Radiolabeled ligand binding assay, [3H]8-OH-DPAT; settings: 10 μM, Bovine hippocampus
Description: as §1

μ-opioid receptor = target: T2, μ-opioid receptor (Rattus norvegicus, UniProt P33535); assay: Radiolabeled ligand binding assay, [3H]DAMGO; settings: 10 μM, Rat forebrain
T2 construct: Novascreen Biosciences (contract assay)
T2 sequence (P33535 whole entry): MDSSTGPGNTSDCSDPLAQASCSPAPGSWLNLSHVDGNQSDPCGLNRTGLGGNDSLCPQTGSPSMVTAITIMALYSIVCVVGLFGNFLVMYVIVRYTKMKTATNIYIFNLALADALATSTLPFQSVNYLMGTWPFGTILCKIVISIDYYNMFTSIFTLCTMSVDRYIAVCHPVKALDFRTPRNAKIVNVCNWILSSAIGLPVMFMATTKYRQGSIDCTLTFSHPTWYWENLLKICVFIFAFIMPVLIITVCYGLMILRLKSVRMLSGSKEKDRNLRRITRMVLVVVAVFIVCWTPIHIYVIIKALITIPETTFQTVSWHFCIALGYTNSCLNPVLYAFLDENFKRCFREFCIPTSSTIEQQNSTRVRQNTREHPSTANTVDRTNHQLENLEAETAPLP
Description: as §1

[2] = test system: citric acid-induced cough; assay: Citric acid-induced cough in guinea pigs (antitussive activity); type: in vivo, guinea pig; settings: for cough episodes (result in words): citric acid-induced cough; for ED50 value (antitussive): comparative study compound A vs codeine (positive control), i.p.; for rank order of antitussive potency: guinea pig citric acid cough model; for % Cough Episode (Composed with Vehicle Control): mean ± SEM
Description: In another embodiment, a method is provided for screening for a substance that inhibits coughing activity. For example, a guinea pig is challenged with 0.5 M citric acid. Those producing more than 10 cough episodes during a first citric acid challenge are selected to be sensitive to citric acid induction and are used for further antitussive tests. The number of coughs and the cough latency in the first challenge animal are recorded as the basal level control. After 48 hours of recovery, the sensitive guinea pigs are selected and are randomly divided into different group, and then pretreated with either intraperitoneal or oral administration. For the intraperitoneal administration, the administration can be of a aqueous extract (0.3-3 g/kg), a total alkaloid extract (25-150 mg/kg), an alkaloid, for example compound A (10, 30, 50, and 100 mg/kg), or compounds B, C, D, F, G, H (133 μmol/kg), for 30 min, or of an extract suspected of having antitussive activity. For the oral administration, the administration can be of compound A or E (400 μmol/kg) for 60 min, or of an extract suspected of having antitussive activity. A second citric acid exposure is then conducted. Antitussive activity is evaluated in each treated animal as the reduction of coughs and the increase of cough latency, as compared to the basal level control.
The method previously described by Gallico et al. (1994) was adopted with the following modifications. Unrestrained guinea pigs were placed individually in a hermetically sealed transparent Perspex chamber (25 cm×12 cm×12 cm), and exposed to a nebulized aqueous solution of 0.5 M citric acid for 8 min. An ultrasonic nebulizer was used (OMRON NE-U12, Tokyo, Japan) that produced an aerosol with particles having a mass median diameter of 1˜5 μm. Approximately 0.5 ml of 0.5 M citric acid solution was nebulized per minute. During the exposure, the guinea pigs were continuously monitored by a trained observer. The episodes and latency of coughing in 8 min were detected and counted by the observer. Cough sounds were recorded concurrently and amplified via a microphone placed in the chamber. The sound waves were analyzed by a personal computer by using Cool Edit 2000 software (Syntrillium, Phenix, USA). Therefore, cough counting was performed based on both acoustic data and human observations, and in this manner the reduction or inhibition of coughing (i.e., antitussive activity) was measured.
The guinea pigs were first challenged with 0.5 M citric acid. Those producing more than 10 cough episodes during the first citric acid challenge were selected to be sensitive to citric acid induction and were used for the further antitussive tests. The number of coughs and the cough latency in the first challenge were recorded as the basal level control. After 48 hours of recovery, the sensitive guinea pigs were selected and were randomly divided into different groups with at least four guinea pigs in each group, and then pretreated with intraperitoneal administration of the aqueous extract (0.3-3 g/kg), the total alkaloid extract (25-150 mg/kg), compound A (10, 30, 50, and 100 mg/kg), and compounds B, C, D, F, G, H (133 μmol/kg), for 30 min before the second citric acid exposure. Antitussive activity was evaluated in each treated animal as the reduction of coughs and the increase of cough latency, as compared to the basal level control. Furthermore, the same antitussive test was also performed with oral administration of compounds A and E (400 μmol/kg). In addition, as a positive control, the antitussive activity of codeine (5, 10 and 30 mg/kg, i.p.) was also determined in a parallel study.

Dopamine D2-receptor = assay: Radiolabeled ligand binding assay, [3H]Glibenclamide; parameters: species or system Rat; key to Affinity: ± indicates slight but not significant inhibition on ligand binding; settings: 10 μM, Dopamine D2, Rate striatum
Description: as §1

κ1-opioid receptor = target: T3, κ1-opioid receptor (Cavia porcellus, UniProt P41144); assay: Radiolabeled ligand binding assay, [3H]U-69593; settings: 10 μM, Opioid κ, Guinea pig cerebellum
T3 construct: Novascreen Biosciences (contract assay)
T3 sequence (P41144 whole entry): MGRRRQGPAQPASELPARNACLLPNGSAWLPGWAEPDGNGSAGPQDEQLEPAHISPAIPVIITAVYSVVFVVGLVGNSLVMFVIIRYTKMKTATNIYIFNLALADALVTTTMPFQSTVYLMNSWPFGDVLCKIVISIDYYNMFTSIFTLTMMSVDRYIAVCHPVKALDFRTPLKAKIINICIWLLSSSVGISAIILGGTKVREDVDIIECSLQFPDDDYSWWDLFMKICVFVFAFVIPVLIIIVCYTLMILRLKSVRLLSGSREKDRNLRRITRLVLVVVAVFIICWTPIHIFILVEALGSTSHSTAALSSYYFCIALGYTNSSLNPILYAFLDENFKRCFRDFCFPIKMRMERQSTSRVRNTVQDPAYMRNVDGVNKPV
Description: as §1

δ2-opioid receptor = δ2-opioid receptor (Homo sapiens, UniProt P41143); assay: Radiolabeled ligand binding assay, [3H]Naltrindole; settings: 10 μM, Opioid δ2, Human recombinant
δ2-opioid receptor, sequence (P41143 whole entry): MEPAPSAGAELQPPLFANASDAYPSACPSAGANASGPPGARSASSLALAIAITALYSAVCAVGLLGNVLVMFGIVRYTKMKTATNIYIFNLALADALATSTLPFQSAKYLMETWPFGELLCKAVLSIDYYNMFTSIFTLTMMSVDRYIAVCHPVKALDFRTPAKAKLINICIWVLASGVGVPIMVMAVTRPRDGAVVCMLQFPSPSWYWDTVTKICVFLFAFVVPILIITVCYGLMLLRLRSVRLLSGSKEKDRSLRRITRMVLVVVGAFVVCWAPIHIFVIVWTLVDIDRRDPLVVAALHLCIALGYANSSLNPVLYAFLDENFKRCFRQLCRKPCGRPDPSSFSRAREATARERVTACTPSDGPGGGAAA
Description: as §1

δ1-opioid receptor = target: T4, δ1-opioid receptor (Rattus norvegicus, UniProt P33533); assay: Radiolabeled ligand binding assay, [3H]Deltorphin; settings: 10 μM, Opioid δ1, Rat forebrain, [3H]Deltrophin
T4 construct: Rat forebrain; tissue Novascreen Biosciences (contract assay); host or cells: rat forebrain
T4 sequence (P33533 whole entry): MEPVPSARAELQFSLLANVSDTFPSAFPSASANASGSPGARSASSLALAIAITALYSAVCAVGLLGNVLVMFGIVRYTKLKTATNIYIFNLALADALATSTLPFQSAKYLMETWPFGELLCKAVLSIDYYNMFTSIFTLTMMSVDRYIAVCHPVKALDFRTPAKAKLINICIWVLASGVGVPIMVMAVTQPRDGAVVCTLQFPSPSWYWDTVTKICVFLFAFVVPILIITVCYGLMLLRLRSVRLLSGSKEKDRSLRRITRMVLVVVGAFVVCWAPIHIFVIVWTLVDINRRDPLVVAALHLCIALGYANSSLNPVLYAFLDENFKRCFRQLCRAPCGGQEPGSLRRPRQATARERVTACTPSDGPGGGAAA
Description: as §1

[3] = test system: citric acid-induced cough; assay: Effect of receptor antagonists on the antitussive activity of compound A in vivo; parameters: species or system guinea pig; settings: mean ± SEM
Description: Further studies were conducted for the delineation of the mechanisms of antitussive activity produced by the representative Stemona alkaloid, compound A. Similarly, the sensitive animals were selected after the first citric acid challenge and allowed to recover for 24 hours. During the second challenge, animals were treated with a subcutaneous injection of different antagonists at different times prior to intraperitoneal administration of compound A (50 or 100 mg/kg). The antagonists examined included SCH 50911 (GABAB receptor antagonist) with a 40 min pretreatment at a dose of 10 mg/kg, WAY-100635 (5-HT1A receptor antagonist) with a 60 min pretreatment at a dose of 1 mg/kg, and haloperidol (Dopamine, D2 receptor antagonist) with a 45 min pretreatment at a dose of 1 mg/kg. In addition, naloxone (nonselective opioid receptor antagonist) was administered subcutaneously at a dose of 5 mg/kg at 20 min after intraperitoneal administration of compound A (30 and 100 mg/kg). The effects of these antagonists on the antitussive activity of compound A were assessed by comparison of the changes in cough episodes and cough latency between animal groups administrated with compound A alone and concurrent administration of compound A and each antagonist tested. Furthermore, in a parallel study, the same treatment with naloxone was also conducted in the animals pretreated with intraperitoneal administration of codeine (30 mg/kg) for the positive control.

[4] = ip, 133 μmol/kg, 30 min before second citric acid exposure, guinea pig
[5] = po, 400 μmol/kg, 60 min before second citric acid exposure, guinea pig

T1 sequence (Q9Z0U4 17-960 limits assumed): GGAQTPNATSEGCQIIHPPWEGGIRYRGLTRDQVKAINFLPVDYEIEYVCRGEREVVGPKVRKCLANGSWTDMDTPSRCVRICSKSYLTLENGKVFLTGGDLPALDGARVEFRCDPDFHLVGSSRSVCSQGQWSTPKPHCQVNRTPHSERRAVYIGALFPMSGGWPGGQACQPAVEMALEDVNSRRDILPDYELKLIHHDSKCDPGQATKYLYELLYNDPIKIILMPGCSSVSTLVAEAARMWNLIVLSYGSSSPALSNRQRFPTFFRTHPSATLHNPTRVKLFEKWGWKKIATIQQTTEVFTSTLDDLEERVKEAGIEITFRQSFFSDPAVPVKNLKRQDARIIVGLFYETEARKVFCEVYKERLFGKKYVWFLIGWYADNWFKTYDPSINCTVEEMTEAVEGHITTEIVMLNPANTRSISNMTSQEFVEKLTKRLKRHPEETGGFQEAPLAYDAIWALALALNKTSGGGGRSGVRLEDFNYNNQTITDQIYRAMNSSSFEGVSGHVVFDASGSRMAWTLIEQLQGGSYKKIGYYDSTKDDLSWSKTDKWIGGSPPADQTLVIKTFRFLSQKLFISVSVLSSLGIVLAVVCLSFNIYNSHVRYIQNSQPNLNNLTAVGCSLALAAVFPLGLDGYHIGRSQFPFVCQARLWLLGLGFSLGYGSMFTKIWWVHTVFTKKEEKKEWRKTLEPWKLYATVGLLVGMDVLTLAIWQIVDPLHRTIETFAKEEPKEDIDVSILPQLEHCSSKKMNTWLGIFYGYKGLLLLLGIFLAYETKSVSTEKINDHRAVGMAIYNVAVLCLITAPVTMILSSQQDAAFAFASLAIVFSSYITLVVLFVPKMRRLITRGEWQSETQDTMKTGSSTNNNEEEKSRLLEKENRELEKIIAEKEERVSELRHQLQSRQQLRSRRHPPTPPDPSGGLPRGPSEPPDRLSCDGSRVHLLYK
T1 sequence (O88871 41-940 partner): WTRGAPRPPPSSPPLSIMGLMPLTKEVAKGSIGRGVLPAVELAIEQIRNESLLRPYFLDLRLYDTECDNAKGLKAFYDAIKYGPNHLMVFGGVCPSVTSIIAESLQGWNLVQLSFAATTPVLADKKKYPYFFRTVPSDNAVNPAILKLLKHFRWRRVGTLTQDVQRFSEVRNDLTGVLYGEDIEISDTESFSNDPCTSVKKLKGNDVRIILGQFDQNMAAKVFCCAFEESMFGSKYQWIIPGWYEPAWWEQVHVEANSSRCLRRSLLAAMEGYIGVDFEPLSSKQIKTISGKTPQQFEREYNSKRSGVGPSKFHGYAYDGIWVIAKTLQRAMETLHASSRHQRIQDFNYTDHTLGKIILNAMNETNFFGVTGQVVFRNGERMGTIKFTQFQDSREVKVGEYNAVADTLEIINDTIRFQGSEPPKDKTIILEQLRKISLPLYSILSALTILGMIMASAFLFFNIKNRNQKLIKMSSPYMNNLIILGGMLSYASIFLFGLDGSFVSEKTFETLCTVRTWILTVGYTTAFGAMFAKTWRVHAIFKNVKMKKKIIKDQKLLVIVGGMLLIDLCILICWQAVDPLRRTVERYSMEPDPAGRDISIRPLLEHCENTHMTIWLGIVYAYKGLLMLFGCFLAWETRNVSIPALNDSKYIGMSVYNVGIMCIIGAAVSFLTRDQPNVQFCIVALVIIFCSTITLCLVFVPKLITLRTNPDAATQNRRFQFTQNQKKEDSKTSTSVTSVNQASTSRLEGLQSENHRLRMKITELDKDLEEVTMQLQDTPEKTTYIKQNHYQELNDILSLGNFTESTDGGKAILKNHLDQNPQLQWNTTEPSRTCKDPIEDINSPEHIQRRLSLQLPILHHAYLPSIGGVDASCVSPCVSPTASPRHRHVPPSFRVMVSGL

CC[C@@H]1[C@H]2CCCCN3[C@H]2[C@@H](C[C@H]3[C@@H]2C[C@H](C)C(=O)O2)[C@H]2[C@@H]1OC(=O)[C@H]2C [Compound A, Neotuberostemonine]
Affinity (GABAB receptor): No
% Inhibition of Ligand Binding (average) (GABAB receptor; duplicate): 8.06%
affinity to all receptors examined (in words) [1]: did not show any affinity
Affinity (5HT1A receptor): No
% Inhibition of Ligand Binding (average) (5HT1A receptor; duplicate): −18.42%
Affinity (μ-opioid receptor): No
% Inhibition of Ligand Binding (average) (μ-opioid receptor; duplicate): 7.37%
cough episodes (result in words) ([2]; guinea pig): inhibited citric acid-induced cough in a dose-dependent manner; also recorded: significantly inhibited cough episodes in a dose-dependent manner
ED50 value (antitussive) ([2]; guinea pig): comparable
cough latency ([2]; doses of 50 and 100 mg/kg, intraperitoneal, guinea pig): significantly increased
rank order of antitussive potency [2]: A=D>C≈F≈H≈B
% Cough Episode (Composed with Vehicle Control) [2, 4]: 16.1 ± 7.3%
% Cough Episode (Composed with Vehicle Control) [2, 5]: 21.7 ± 8.9%
Affinity (Dopamine D2-receptor): ±
% Inhibition of Ligand Binding (average) (Dopamine D2-receptor; duplicate): 33.39%
Affinity (κ1-opioid receptor): No
% Inhibition of Ligand Binding (average) (κ1-opioid receptor; duplicate): 14.40%
Affinity (δ2-opioid receptor): No
% Inhibition of Ligand Binding (average) (δ2-opioid receptor; duplicate): 8.32%
% Inhibition of Ligand Binding (average) (δ1-opioid receptor; duplicate): 5.95%
Affinity (δ1-opioid receptor): No
% Antitussive Activity of Compound A ([3]; with Haloperidol (Dopamine D2 antagonist) 1 mg/kg sc, 45 min pretreatment, compound A ip 50 or 100 mg/kg): 115.21 ± 7.05%
% Antitussive Activity of Compound A ([3]; with Naloxone (nonselective opioid antagonist) 5 mg/kg sc 20 min after compound A ip (30 and 100 mg/kg)): 86.51 ± 11.57%
% Antitussive Activity of Compound A ([3]; with SCH 50911 (GABAB antagonist) 10 mg/kg sc, 40 min pretreatment, compound A ip 50 or 100 mg/kg): 83.25 ± 16.73%
% Antitussive Activity of Compound A ([3]; with WAY-100635 (5-HT1A antagonist) 1 mg/kg sc, 60 min pretreatment, compound A ip 50 or 100 mg/kg): 100.50 ± 1.67%

CC[C@@H]1[C@@H]2CCCCN3[C@@H]2[C@@H](C[C@H]3[C@@H]2C[C@H](C)C(=O)O2)[C@H]2[C@@H]1OC(=O)[C@H]2C [Compound B, Tuberostemonine J]
cough episodes (result in words) ([2]; guinea pig): marked reduction of cough episodes
rank order of antitussive potency [2]: A=D>C≈F≈H≈B
% Cough Episode (Composed with Vehicle Control) [2, 4]: 76.3 ± 14.7 (ip) %

CC[C@@H]1[C@H]2CCCCN3[C@@H]2[C@@H](C[C@H]3[C@@H]2C[C@H](C)C(=O)O2)[C@H]2[C@@H]1OC(=O)[C@H]2C [Compound C, Tuberostemonine H]
cough episodes (result in words) ([2]; guinea pig): marked reduction of cough episodes
rank order of antitussive potency [2]: A=D>C≈F≈H≈B
% Cough Episode (Composed with Vehicle Control) [2, 4]: 50.7 ± 16.6 (ip) %

CC[C@@H]1[C@H]2CCCCN3CC[C@@H]([C@H]4[C@@H]1OC(=O)[C@H]4C)[C@@H]23 [Compound D, Neostenine]
cough episodes (result in words) ([2]; guinea pig): significantly inhibited cough episodes in a dose-dependent manner
rank order of antitussive potency [2]: A=D>C≈F≈H≈B
% Cough Episode (Composed with Vehicle Control) [2, 4]: 29.9 ± 8.3 (ip) %

CC[C@H]1[C@H]2OC(=O)[C@@H](C)[C@H]2c2cc([C@H]3C[C@H](C)C(=O)O3)n3c2[C@H]1CCCC3 [Compound E, Epibisdehydrotuberostemonine J]
% Cough Episode (Composed with Vehicle Control) [2, 5]: 136.8 ± 25.6 (po) %

CC[C@@H]1[C@H]2CCCCN3CC[C@@H]([C@H]4[C@@H]1OC[C@H]4C)[C@@H]23 [Compound H, Neostenine-ether]
cough episodes (result in words) ([2]; guinea pig): marked reduction of cough episodes
rank order of antitussive potency [2]: A=D>C≈F≈H≈B
% Cough Episode (Composed with Vehicle Control) [2, 4]: 54.4 ± 10.6 (ip) %

COc1ccc2c3c1O[C@H]1[C@@H](O)C=C[C@H]4[C@@H](C2)N(C)CC[C@@]341 [codeine, reference compound]
ED50 value (antitussive) ([2]; guinea pig): comparable

Neostenine-acid [Compound G]
% Cough Episode (Composed with Vehicle Control) [2, 4]: 104.5 ± 20.4 (ip) %

Neostenine-diol [Compound F]
cough episodes (result in words) ([2]; guinea pig): marked reduction of cough episodes
rank order of antitussive potency [2]: A=D>C≈F≈H≈B
% Cough Episode (Composed with Vehicle Control) [2, 4]: 62.2 ± 10.8 (ip) %
